Our source for the T/C values is PubChem BioAssay AID192 (DTP/NCI, 2004).

In this assay the test system is BDF1 mice, B16 melanoma ip, median survival T/C. The experiment in a line: NCI In Vivo Anticancer Drug Screen. Data for tumor model B16 Melanoma (intraperitoneal) in B6D2F1 (BDF1) mice. As to conditions: endpoint: median survival time, higher = longer survival. Summed up:
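Transplantable tumor model; survival or tumor size measured; reported as T/C, treated over vehicle control.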

Setting [1] is: dose: 100.0 mg/kg/injection, schedule: Q01DX009 (ip), vehicle: saline with Tween-80.
The mark [2] stands for this setting: dose: 200.0 mg/kg/injection, schedule: Q01DX009 (ip), vehicle: saline with Tween-80.
Setting [3] is: dose: 6.25 mg/kg/injection, schedule: Q01DX009 (ip), vehicle: Klucel (hydroxypropylcellulose) (HPC).
The mark [4] stands for this setting: dose: 12.5 mg/kg/injection, schedule: Q01DX009 (ip), vehicle: Klucel (hydroxypropylcellulose) (HPC).

Where “and” joins values, the source holds several entries; their conditions need not be identical. Identical values can stand only once. Inconclusive results and toxic doses are left out.

As to `COc1cccc2c1C(=O)c1c(O)c3c(c(O)c1C2=O)C[C@@](O)(C(C)=O)C[C@@H]3OC1CC(N)C(O)C(C)O1` (some centres not stated), the T/C is 184 % of control (dose: 0.06 mg/kg/injection, schedule: Q01DX017 (ip), vehicle: clinical formulation); 160 % of control (dose: 0.06 mg/kg/injection, schedule: Q05DX010 (ip), vehicle: clinical formulation); 168 % of control (dose: 0.12 mg/kg/injection, schedule: Q01DX009 (ip), vehicle: clinical formulation); 178 % of control (dose: 0.12 mg/kg/injection, schedule: Q01DX017 (ip), vehicle: clinical formulation); 165 % of control (dose: 0.12 mg/kg/injection, schedule: Q05DX010 (ip), vehicle: clinical formulation); 189 % of control (dose: 0.13 mg/kg/injection, schedule: Q01DX009 (ip), vehicle: water). Besides, the T/C (dose: 0.2 mg/kg/injection, schedule: Q01DX009 (ip), vehicle: saline) is 170 % of control; the T/C (dose: 0.25 mg/kg/injection, schedule: Q01DX009 (ip), vehicle: clinical formulation) was 192 % of control; the T/C (dose: 0.25 mg/kg/injection, schedule: Q01DX017 (ip), vehicle: clinical formulation) is 226 % of control; the T/C (dose: 0.25 mg/kg/injection, schedule: Q03HX008 (ip), vehicle: saline) is 152 % of control; the T/C (dose: 0.25 mg/kg/injection, schedule: Q04DX003 (ip), vehicle: clinical formulation) is 162 % of control; the T/C (dose: 0.25 mg/kg/injection, schedule: Q04DX005 (ip), vehicle: clinical formulation) is 165 % of control. Further, the T/C reads like this: (dose: 0.25 mg/kg/injection, schedule: Q05DX010 (ip), vehicle: clinical formulation) 237 % of control; (dose: 0.39 mg/kg/injection, schedule: Q01DX009 (ip), vehicle: saline) 212 % of control; (dose: 0.5 mg/kg/injection, schedule: Q01DX009 (ip), vehicle: clinical formulation) 292 % of control; (dose: 0.5 mg/kg/injection, schedule: Q01DX017 (ip), vehicle: clinical formulation) 315 % of control; (dose: 0.5 mg/kg/injection, schedule: Q04DX005 (ip), vehicle: clinical formulation) 215 % of control; (dose: 0.5 mg/kg/injection, schedule: Q05DX010 (ip), vehicle: clinical formulation) 235 % of control. The T/C is 100 % of control (dose: 0.5 mg/kg/injection, schedule: Q11DX018 (sc), vehicle: water); 238 % of control (dose: 0.78 mg/kg/injection, schedule: Q01DX009 (ip), vehicle: saline); 223 % of control (dose: 1.0 mg/kg/injection, schedule: Q01DX001 (ip), vehicle: clinical formulation); 204 % of control (dose: 1.0 mg/kg/injection, schedule: Q01DX009 (ip), vehicle: clinical formulation); 213 % of control (dose: 1.0 mg/kg/injection, schedule: Q01DX017 (ip), vehicle: clinical formulation); 217 % of control (dose: 1.0 mg/kg/injection, schedule: Q04DX003 (ip), vehicle: clinical formulation). Further, the T/C was 194 % of control (dose: 1.0 mg/kg/injection, schedule: Q04DX005 (ip), vehicle: clinical formulation); 200 % of control (dose: 1.0 mg/kg/injection, schedule: Q05DX010 (ip), vehicle: clinical formulation); 111 % of control (dose: 1.0 mg/kg/injection, schedule: Q11DX018 (sc), vehicle: water); 287 % of control (dose: 1.5 mg/kg/injection, schedule: Q01DX001 (ip), vehicle: water); 150 % of control (dose: 1.56 mg/kg/injection, schedule: Q01DX009 (ip), vehicle: saline); 204 % of control (dose: 2.0 mg/kg/injection, schedule: Q01DX001 (ip), vehicle: clinical formulation). Moreover, the T/C reads like this: (dose: 2.0 mg/kg/injection, schedule: Q01DX009 (ip), vehicle: clinical formulation) 187 % of control; (dose: 2.0 mg/kg/injection, schedule: Q04DX003 (ip), vehicle: clinical formulation) 215 % of control; (dose: 2.0 mg/kg/injection, schedule: Q04DX005 (ip), vehicle: clinical formulation) 160 % of control; (dose: 2.0 mg/kg/injection, schedule: Q05DX010 (ip), vehicle: clinical formulation) 110 % of control; (dose: 3.0 mg/kg/injection, schedule: Q01DX001 (ip), vehicle: water) 287 % of control; (dose: 4.0 mg/kg/injection, schedule: Q01DX001 (ip), vehicle: clinical formulation) 285 % of control. In addition, the T/C (dose: 6.0 mg/kg/injection, schedule: Q01DX001 (ip), vehicle: water) is 94 % of control and 103 % of control; the T/C (dose: 7.5 mg/kg/injection, schedule: Q01DX001 (ip), vehicle: water) was 107 % of control and 122 % of control; the T/C (dose: 10.0 mg/kg/injection, schedule: Q01DX001 (ip), vehicle: water) was 110 % of control.

For `Cc1cc2nc(CN)[nH]c2cc1C`, the T/C was 110 % of control (dose: 50.0 mg/kg/injection, schedule: Q01DX009 (ip), vehicle: saline with Tween-80); 97 % of control under setting [1]; 97 % of control under setting [2].

`O=C(O)c1cc(S(=O)O)ccc1O`: the T/C runs as follows: (dose: 10.0 mg/kg/injection, schedule: Q01DX009 (ip), vehicle: saline) 103 % of control; (dose: 20.0 mg/kg/injection, schedule: Q01DX009 (ip), vehicle: saline) 106 % of control; (dose: 40.0 mg/kg/injection, schedule: Q01DX009 (ip), vehicle: saline) 98 % of control.

Consider `COc1c(I)c2c(c(OC)c1OC)-c1ccc(OC)c(=O)cc1C(NC(C)=O)CC2` (configuration not stated), for which the T/C runs as follows: (dose: 0.78 mg/kg/injection, schedule: Q01DX009 (ip), vehicle: Klucel (hydroxypropylcellulose) (HPC)) 104 % of control; (dose: 1.56 mg/kg/injection, schedule: Q01DX009 (ip), vehicle: Klucel (hydroxypropylcellulose) (HPC)) 104 % of control and 124 % of control; (dose: 3.12 mg/kg/injection, schedule: Q01DX009 (ip), vehicle: Klucel (hydroxypropylcellulose) (HPC)) 112 % of control; under setting [3], 121 % of control; under setting [4], 112 % of control.

On to `Cc1ccc2ccccc2c1OC(C)C(=O)O` (configuration not stated), for which the T/C by setting is: (dose: 25.0 mg/kg/injection, schedule: Q04DX003 (ip), vehicle: alcohol) 100 % of control; (dose: 50.0 mg/kg/injection, schedule: Q01DX009 (ip), vehicle: alcohol) 112 % of control; (dose: 50.0 mg/kg/injection, schedule: Q04DX003 (ip), vehicle: alcohol) 100 % of control; (dose: 100.0 mg/kg/injection, schedule: Q01DX009 (ip), vehicle: alcohol) 109 % of control; (dose: 100.0 mg/kg/injection, schedule: Q04DX003 (ip), vehicle: alcohol) 88 % of control.

In the case of `C[C@H]1C/C=C/[C@H]2[C@@H]3O[C@]3(C)[C@@H](C)[C@H]3[C@H](Cc4ccccc4)NC(=O)[C@]32OC(=O)O/C=C/[C@@](C)(O)C1=O`, the T/C reads like this: (dose: 1.25 mg/kg/injection, schedule: Q01DX009 (ip), vehicle: Klucel (hydroxypropylcellulose) (HPC)) 86 % of control; (dose: 2.5 mg/kg/injection, schedule: Q01DX009 (ip), vehicle: Klucel (hydroxypropylcellulose) (HPC)) 92 % of control; (dose: 10.0 mg/kg/injection, schedule: Q01DX009 (ip), vehicle: Klucel (hydroxypropylcellulose) (HPC)) 89 % of control.

Regarding `CCNCCCN`, the T/C by setting is: (dose: 6.25 mg/kg/injection, schedule: Q01DX009 (ip), vehicle: saline) 102 % of control; (dose: 12.5 mg/kg/injection, schedule: Q01DX009 (ip), vehicle: saline) 102 % of control; (dose: 25.0 mg/kg/injection, schedule: Q01DX009 (ip), vehicle: saline) 94 % of control.

In the case of `O=[N+]([O-])c1cccc(N=P(c2ccccc2)(c2ccccc2)c2ccccc2)c1`, the T/C is, setting by setting: (dose: 100.0 mg/kg/injection, schedule: Q01DX009 (ip), vehicle: Klucel (hydroxypropylcellulose) (HPC)) 97 % of control; (dose: 200.0 mg/kg/injection, schedule: Q01DX009 (ip), vehicle: Klucel (hydroxypropylcellulose) (HPC)) 101 % of control; (dose: 400.0 mg/kg/injection, schedule: Q01DX009 (ip), vehicle: Klucel (hydroxypropylcellulose) (HPC)) 94 % of control.

As for `CC(=O)Nc1ccc(C)c(Cl)c1`, the T/C under setting [1] is 111 % of control and the T/C under setting [2] is 90 % of control.

As to `CC(=O)OCc1cc(=O)n(C)c2c3c4c(cc12)c(C)cc(=O)n4CO3`, the T/C is 122 % of control under setting [3]; 120 % of control under setting [4]; 121 % of control (dose: 25.0 mg/kg/injection, schedule: Q01DX009 (ip), vehicle: Klucel (hydroxypropylcellulose) (HPC)).

As to `CC(O)CN1CC(C)OC(C)C1` (configuration not stated), the T/C was 97 % of control (dose: 100.0 mg/kg/injection, schedule: Q01DX009 (ip), vehicle: saline); 90 % of control (dose: 200.0 mg/kg/injection, schedule: Q01DX009 (ip), vehicle: saline); 97 % of control (dose: 400.0 mg/kg/injection, schedule: Q01DX009 (ip), vehicle: saline).
